Laboratory results as given in US20240398767A1, “INHIBITORS OF THE MTDH-SND1 PROTEIN COMPLEX FOR CANCER THERAPY” (The Trustees of Princeton University, priority 2021, published 2024).
“Also recorded” adds a separate entry of the source.

Assays:
[1] = Toxicity in PyMT tumor-bearing FVB mice (body weight, ALT/AST, blood cell counts, small intestine); format: in vivo; details: 15 mg/kg i.v.
Description: FIG. 12D, Body weight of the mice in experiment from FIG. 5B was measured. Vehicle, n=10 mice; C26-A6, n=12 mice.
FIG. 12E, Serum from mice in experiment in FIG. 5B were collected for ALT and AST activity measurement following the standard protocol (Sigma). Three FVB females treated with 200 μl of 8% CCl4 in corn oil for 2 days served as positive control. Data represent mean±SEM. n=5 mice per group. Significance determined by one-way ANOVA analysis with Dunnett's test for multiple comparisons.
FIG. 12F, Blood samples were drawn from the heart of mice in experiment FIG. 5B, and blood cell counts were performed with the Sysemx XN-3000 Hematology System (Sysmex America, Inc.) Data represent mean±SEM. Vehicle, n=6 mice; C26-A6, n=5 mice. Significance determined by two tailed Student's t-test.
FIG. 12G, Small intestine samples were obtained from mice in experiment from FIG. 5B. H&E and Alcian blue staining was performed on processed, sliced samples. Scale bar: 200 μm.
FIG. 12H, Quantification of Alcian blue staining results from (FIG. 12G). Data represent mean±SEM. n=12 fields from 5 mice in each group. Significance determined by two tailed Student's t-test.

[2] = test system: PyMT tumorspheres; assay: PyMT tumorsphere viability, apoptosis, cell cycle and western blot; format: cell-based, mouse
Description: FIG. 14A, Spheres were treated with vehicle or indicated concentrations of C26-A6 for 1 week. The viability of the spheres was then quantified by MTT assay.
For FIGS. 14B-14I, similar sphere assay as in FIG. 14A was performed. n≥3 independent experiments. Data represent mean±SEM and significance determined by two tailed Student's t-test for all panels in FIGS. 14B-14I.
FIG. 15C, Sphere assay was performed and treated with vehicle and C26-A6 as in FIG. 14A. The spheres were collected for western blot to analyze the expression of the candidates.
To obtain insights into the molecular mechanism underlying C26-A6 treatment-induced reduction of cell viability and increase of apoptosis, in vitro sphere assays were employed. […] To further explore the downstream effectors of tumor-suppressive response to C26-A6, GSEA analysis of PyMT tumor with or without C26-A6 treatment was performed.

[3] = test system: PyMT tumor immune microenvironment; assay: Immune cell profiling of orthotopic PyMT tumors and lungs by flow cytometry; format: in vivo, FVB females; details: six weeks after treatment
From the text: FIGS. 35A-35C show C26-A6 combined with anti-PD-1 treatment reshapes the tumor immune microenvironment. For FIGS. 35A-35C, 100 k PyMT tumor cells were orthotopically injected into the mammary glands of FVB females. The mice were randomized and divided into three groups when primary tumors were established, followed by vehicle, C26-A6, or C26-A6+anti-PD-1 treatment. Six weeks after treatment, primary tumors and lung with metastatic lesions were collected for flow analysis with indicated antibodies. Anti-PD-1, 200 μg/mouse i.p. injection, twice per week for the first week and then once per week after that; C26-A6, 15 mg/kg i.v. injection, 5 days per week. n=6 mice per group. Data represent mean±SEM. Significance determined by one-way ANOVA analysis with Dunnett's test for multiple comparisons.
FIG. 35A, Percentages of CD11b^+F4/80^+, Ly6G^lowLy6C^high, Ly6G^highLy6C^low, CD3-NK1.1^+ in CD45^+ population and percentage of CD4^+FOXP3^+ in CD3^+ population are shown.
FIG. 35B, Percentages of GITR^+LAG-3^+ in CD8^+ population are shown.
Flow cytometry. Dissociated tumors or lungs were dissected and prepared as previously described^10. […]. Organoids were sequentially suspended with 0.25% trypsin-EDTA for 1.5 min, 5 mg/ml Dispase (Invitrogen), and 0.1 mg/ml DNase (Sigma) for 5 min, and 0.64% ammonium chloride for 5 min at 37° C. before filtration through a 40 μm nylon cell strainer. Tumor or lung cell suspensions were incubated with an antibody cocktail in FACS buffer (PBS+3% BSA) for 30 minutes at 4° C., washed, and resuspended in FACS buffer for flow analysis. Isotype controls were used to assess specificity of antibody labeling. […] Samples were analyzed with BD FACSDiva v6 software and data was processed with FlowJo v10 software. […]

## COc1ccc(Cl)cc1S(=O)(=O)Nc1cccn2nc(C)nc12 [Analog C26-A6]
[1]
  hematologic, GI tract, and liver toxicity / tolerability: no significant hematologic, GI tract, and liver toxicity; also recorded: well-tolerated in vivo with minimal toxicity
[2]
  Cdc20, Plk1, and c-Myc expression (western blot): down-regulated
[2]; 200 μM
  cell cycle status: induced G2/M cell cycle arrest
  survival (live cells, apoptosis): significantly reduced survival
[2]; indicated concentrations, 1 week
  sphere viability (MTT assay), tumorspheres versus MECs: more susceptible
[3]
  CD8+ T cell exhaustion (GITR+LAG-3+ in CD8+ population): elevated CD8^+ T cell exhaustion
  infiltration of Ly6GhighLy6Clow sub-population of MDSCs: reduced
  infiltration of Ly6GlowLy6Chigh sub-population of MDSCs: significantly enhanced
  populations of macrophages, NK cells and regulatory T cells: not significantly altered
